# Target: T1, human TLR8 (Homo sapiens, UniProt Q9NR97)
# T1 sequence (Q9NR97 27-1041): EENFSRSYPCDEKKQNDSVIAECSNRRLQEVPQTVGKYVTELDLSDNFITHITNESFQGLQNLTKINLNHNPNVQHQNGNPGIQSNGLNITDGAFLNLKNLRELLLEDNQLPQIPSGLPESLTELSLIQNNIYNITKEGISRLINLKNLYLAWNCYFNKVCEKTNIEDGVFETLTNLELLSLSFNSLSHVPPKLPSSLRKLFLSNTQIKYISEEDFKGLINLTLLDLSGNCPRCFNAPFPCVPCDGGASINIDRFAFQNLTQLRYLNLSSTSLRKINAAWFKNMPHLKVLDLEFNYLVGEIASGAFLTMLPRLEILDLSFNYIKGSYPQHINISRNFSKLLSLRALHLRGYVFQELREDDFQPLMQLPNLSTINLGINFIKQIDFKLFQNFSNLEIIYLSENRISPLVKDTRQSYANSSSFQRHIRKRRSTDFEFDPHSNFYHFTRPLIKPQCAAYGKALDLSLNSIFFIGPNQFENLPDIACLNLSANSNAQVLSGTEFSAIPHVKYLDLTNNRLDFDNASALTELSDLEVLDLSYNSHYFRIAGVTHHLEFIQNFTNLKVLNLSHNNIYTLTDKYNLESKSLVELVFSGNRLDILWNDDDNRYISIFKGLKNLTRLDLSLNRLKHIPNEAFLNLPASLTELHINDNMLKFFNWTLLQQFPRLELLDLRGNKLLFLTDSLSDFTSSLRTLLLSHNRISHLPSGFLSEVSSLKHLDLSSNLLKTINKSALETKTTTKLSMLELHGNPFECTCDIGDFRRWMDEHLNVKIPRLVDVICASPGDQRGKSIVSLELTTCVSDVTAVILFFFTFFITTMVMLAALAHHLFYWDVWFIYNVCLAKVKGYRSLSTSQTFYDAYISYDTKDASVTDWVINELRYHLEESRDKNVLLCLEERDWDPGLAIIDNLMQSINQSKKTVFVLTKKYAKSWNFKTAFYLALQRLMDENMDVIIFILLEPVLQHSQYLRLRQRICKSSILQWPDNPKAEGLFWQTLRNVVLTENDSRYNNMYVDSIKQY
# Test: HEK293-Blue-hTLR-8 cells assay (SEAP reporter, R848 stimulation)
# Assay type: cell-based
# Conditions: HEK293-Blue-hTLR8 cells, R848 ligand, 20 hrs incubation
# Experimental: The following tests were carried out in order to determine the activity of the compounds of formula (I) in HEK293-Blue-hTLR-7/8/9 cells assay.
# HEK293-Blue-hTLR-8 Cells Assay:
# A stable HEK293-Blue-hTLR-8 cell line was purchased from InvivoGen (Cat. #: hkb-htlr8, San Diego, Calif., USA). These cells were originally designed for studying the stimulation of human TLR8 by monitoring the activation of NF-κB. A SEAP (secreted embryonic alkaline phosphatase) reporter gene was placed under the control of the IFN-β minimal promoter fused to five NF-κB and AP-1-binding sites. The SEAP was induced by activating NF-κB and AP-1 via stimulating HEK-Blue hTLR8 cells with TLR8 ligands. Therefore the reporter expression was declined by TLR8 antagonist under the stimulation of a ligand, such as R848, for incubation of 20 hrs. The cell culture supernatant SEAP reporter activity was determined using QUANTI-Blue™ kit (Cat. #: rep-qb1, Invivogen, San Diego, Ca, USA) at a wavelength of 640 nm, a detection medium that turns purple or blue in the presence of alkaline phosphatase.
# HEK293-Blue-hTLR8 cells were incubated at a density of 250,000˜450,000 cells/mL in a volume of 170 μL in a 96-well plate in Dulbecco's Modified Eagle's medium (DMEM) containing 4.5 g/L glucose, 50 U/mL penicillin, […], […], 2 mM L-glutamine, 10% (v/v) heat-inactivated fetal bovine serum with addition of 20 μL test compound in a serial dilution in the presence of final DMSO at 1% and 10 μL of 60 uM R848 in above DMEM, perform incubation under 37° C. in a CO2 incubator for 20 hrs. Then 20 μL of the supernatant from each well was incubated with 180 μL Quanti-blue substrate solution at 37° C. for 2 hrs and the absorbance was read at 620-655 nm using a spectrophotometer. The signalling pathway that TLR8 activation leads to downstream NF-κB activation has been widely accepted, and therefore similar reporter assay was modified for evaluating TLR8 antagonist.
row,SMILES,IC50 [nM]
1,"N#Cc1ccc(N2CC(CN3CCC4(CCNCC4)CC3)C3(CC3)C2)c2nccnc12 (stereo not drawn) [Example 16, 8-[7-(3,9-Diazaspiro[5.5]undecan-3-ylmethyl)-5-azaspiro[2.4]heptan-5-yl]quinoxaline-5-carbonitrile]",133
2,"N#Cc1ccc(N2C[C@H](CN3CCC4(CCCNC4)CC3)[C@@H](C(F)(F)F)C2)c2nccnc12 [Example 45, 8-[(3S,4R)-3-(2,9-diazaspiro[5.5]undecan-9-ylmethyl)-4-(trifluoromethyl)pyrrolidin-1-yl]quinoxaline-5-carbonitrile]",32
3,"N#Cc1ccc(N2CC(CN3CC4(CCCNC4)C3)C3(CC3)C2)c2nccnc12 (stereo not drawn) [Example 24, 8-[7-(2,8-Diazaspiro[3.5]nonan-2-ylmethyl)-5-azaspiro[2.4]heptan-5-yl]quinoxaline-5-carbonitrile]",63
4,"N#Cc1ccc(N2CC(CN3CCC4(CC3)CNCCO4)C3(CC3)C2)c2nccnc12 (stereo not drawn) [Example 49, 8-[7-(1-Oxa-4,9-diazaspiro[5.5]undecan-9-ylmethyl)-5-azaspiro[2.4]heptan-5-yl]quinoxaline-5-carbonitrile]",24
5,"N#Cc1ccc(N2C[C@@H](CN3CCC4(CCNCC4)CC3)[C@H](C3CC3)C2)c2cccnc12 (relative stereo) [Example 28, 5-[Trans-3-cyclopropyl-4-(3,9-diazaspiro[5.5]undecan-3-ylmethyl)pyrrolidin-1-yl]quinoline-8-carbonitrile]",948
6,"N#Cc1ccc(N2C[C@H](CN3CCC(CN)CC3)[C@@H](C(F)(F)F)C2)c2nccnc12 [Example 74, 8-[(3S,4R)-3-[[4-(aminomethyl)-1-piperidyl]methyl]-4-(trifluoromethyl)pyrrolidin-1-yl]quinoxaline-5-carbonitrile]",55
7,"CC(C)[C@@H]1CN(c2ccc(C#N)c3ncccc23)C[C@H]1CN1CCC2(CCNCC2)CC1 (relative stereo) [Example 36, 5-[Trans-3-(3,9-diazaspiro[5.5]undecan-3-ylmethyl)-4-isopropyl-pyrrolidin-1-yl]quinoline-8-carbonitrile]",5170
8,"N#Cc1ccc(N2C[C@H](CN3CCC4(CC3)CNCCO4)[C@@H](C(F)(F)F)C2)c2nccnc12 [Example 70, 8-[(3S,4R)-3-(1-oxa-4,9-diazaspiro[5.5]undecan-9-ylmethyl)-4-(trifluoromethyl)pyrrolidin-1-yl]quinoxaline-5-carbonitrile]",20
9,"CN(C)C[C@@H]1CCN(C[C@H]2CN(c3ccc(C#N)c4nccnc34)C[C@@H]2C(F)(F)F)C1 [Example 82, 8-[(3S,4R)-3-[[(3S)-3-[(dimethylamino)methyl]pyrrolidin-1-yl]methyl]-4-(trifluoromethyl)pyrrolidin-1-yl]quinoxaline-5-carbonitrile]",108
10,"N#Cc1ccc(N2C[C@H](CN3CC4CCC(C3)C4N)[C@@H](C(F)(F)F)C2)c2nccnc12 (stereo partly drawn) [Example 73, 8-[(3S,4R)-3-[(8-amino-3-azabicyclo[3.2.1]octan-3-yl)methyl]-4-(trifluoromethyl)pyrrolidin-1-yl]quinoxaline-5-carbonitrile]",35
11,"N#Cc1ccc(N2C[C@H](CN3CCC(N)C(F)(F)C3)[C@@H](C(F)(F)F)C2)c2nccnc12 (stereo partly drawn) [Example 64, 8-[(3S,4R)-3-[(4-amino-3,3-difluoro-1-piperidyl)methyl]-4-(trifluoromethyl)pyrrolidin-1-yl]quinoxaline-5-carbonitrile]",86
12,"CN(C)C1CCN(C[C@H]2CN(c3ccc(C#N)c4nccnc34)C[C@@H]2C(F)(F)F)CC1 [Example 80, 8-[(3S,4R)-3-[[4-(dimethylamino)-1-piperidyl]methyl]-4-(trifluoromethyl)pyrrolidin-1-yl]quinoxaline-5-carbonitrile]",32
13,"CC(C)[C@@H]1CN(c2ccc(C#N)c3ncccc23)C[C@H]1CN1CCC2(CCNC2)C1 (relative stereo) [Example 44, 5-[Trans-3-(2,7-diazaspiro[4.4]nonan-2-ylmethyl)-4-isopropyl-pyrrolidin-1-yl]quinoline-8-carbonitrile]",533
14,"N#Cc1ccc(N2CC(CN3CCC(N)CC3)C3(CC3)C2)c2nccnc12 (single isomer, unassigned) [Example 68A, 8-[7-[(4-Amino-1-piperidyl)methyl]-5-azaspiro[2.4]heptan-5-yl]quinoxaline-5-carbonitrile]",60
15,"N#Cc1ccc(N2CC(CN3CCC(N4CCOCC4)CC3)C3(CC3)C2)c2nccnc12 (stereo not drawn) [Example 58, 8-[7-[(4-Morpholino-1-piperidyl)methyl]-5-azaspiro[2.4]heptan-5-yl]quinoxaline-5-carbonitrile]",91
16,"N#Cc1ccc(N2CC(CN3CCC4(CCNCC4)C3)C3(CC3)C2)c2nccnc12 (stereo not drawn) [Example 32, 8-[7-(2,8-Diazaspiro[4.5]decan-2-ylmethyl)-5-azaspiro[2.4]heptan-5-yl]quinoxaline-5-carbonitrile]",111
17,"N#Cc1ccc(N2CC(CN3CC4(CC(N)C4)C3)C3(CC3)C2)c2nccnc12 (stereo not drawn) [Example 42, 8-[7-[(6-Amino-2-azaspiro[3.3]heptan-2-yl)methyl]-5-azaspiro[2.4]heptan-5-yl]quinoxaline-5-carbonitrile]",161
18,"N#Cc1ccc(N2C[C@H](CN3CCC(N4CCCC4)CC3)[C@@H](C(F)(F)F)C2)c2nccnc12 [Example 60, 8-[(3S,4R)-3-[(4-Pyrrolidin-1-yl-1-piperidyl)methyl]-4-(trifluoromethyl)pyrrolidin-1-yl]quinoxaline-5-carbonitrile]",43
19,"N#Cc1ccc(N2CC(CN3CCC4(CCCNC4)C3)C3(CC3)C2)c2nccnc12 (stereo not drawn) [Example 22, 8-[7-(2,9-Diazaspiro[4.5]decan-2-ylmethyl)-5-azaspiro[2.4]heptan-5-yl]quinoxaline-5-carbonitrile]",79
20,"N#Cc1ccc(N2C[C@H](CN3CCC(N)CC3)[C@@H](C(F)(F)F)C2)c2nccnc12 [Example 26, 8-[(3S,4R)-3-[(4-Amino-1-piperidyl)methyl]-4-(trifluoromethyl)pyrrolidin-1-yl]quinoxaline-5-carbonitrile]",21
21,"CC1(N)CCN(C[C@H]2CN(c3ccc(C#N)c4nccnc34)C[C@@H]2C(F)(F)F)CC1 [Example 12, 8-[(3S,4R)-3-[(4-amino-4-methyl-1-piperidyl)methyl]-4-(trifluoromethyl)pyrrolidin-1-yl]quinoxaline-5-carbonitrile]",31
22,"N#Cc1ccc(N2C[C@@H](CN3CCC4(CCNC4)C3)[C@H](C(F)F)C2)c2cccnc12 (relative stereo) [Example 34, 5-[Trans-3-(2,7-diazaspiro[4.4]nonan-2-ylmethyl)-4-(difluoromethyl)pyrrolidin-1-yl]quinoline-8-carbonitrile]",373
23,"N#Cc1ccc(N2C[C@H](CN3CCC4(CCNCC4)CC3)[C@@H](C(F)(F)F)C2)c2nccnc12 [Example 1, 8-[(3S,4R)-3-(3,9-diazaspiro[5.5]undecan-3-ylmethyl)-4-(trifluoromethyl)pyrrolidin-1-yl]quinoxaline-5-carbonitrile]",20
24,"N#Cc1ccc(N2C[C@H](CN3CCC(N4CCCCCC4)CC3)[C@@H](C(F)(F)F)C2)c2nccnc12 [Example 62, 8-[(3S,4R)-3-[[4-(Azepan-1-yl)-1-piperidyl]methyl]-4-(trifluoromethyl)pyrrolidin-1-yl]quinoxaline-5-carbonitrile]",28

# — US20210253575A1, “PYRROLIDINE AMINE COMPOUNDS FOR THE TREATMENT OF AUTOIMMUNE DISEASE” (Hoffmann-La Roche Inc., priority 2018, published 2021)
